Where a name gives a salt, the structure may show the parent alone.
Legend:
[1] = molecular target: T1, Recombinant ROCK1 (amino acids 1-477) (Homo sapiens, UniProt Q13464); assay: ROCK inhibition assay, LANCE Ultra TR-FRET (ROCK1); assay type: biochemical; conditions: 1 mM of ATP
T1 construct: Recombinant ROCK1 (amino acids 1-477)
Procedure: (§1) Kinase IC50 was determined through an in vitro assay based on LANCE Ultra TR-FRET (Time-Resolved Fluorescence Resonance Energy Transfer) homogeneous technologies method 5 (Perkin Elmer). Recombinant ROCK1 (amino acids 1-477) and ROCK2 (amino acids 5-554) proteins were purchased from Carna Biosciences and SignalChem. Compound activities were measured by Envision and IC50s were calculated. The assays were performed in white LUMITRAC™ 200 96 well half-area microplates from Greiner Bio-One. The kinase reaction buffer consisted of 50 mM HEPES pH 7.5, 1 mM EGTA, 10 mM MgCl2, 2 mM DTT and 0.01% 10 Tween-20. Kinases were incubated with 50 nM (ULight-CREBtide) substrate in the presence of 1 mM (ROCK1) or 1 mM (ROCK2) of ATP. The kinase reaction was carried out for 1 hour before addition of a stopping buffer to a final of 10 mM EDTA and 0.6 nM of LANCE Ultra Europium anti-phospho-CREB (Ser133) antibody (PerkinElmer TRF0200) in LANCE detection buffer. All assay incubations were performed at room temperature, and the microplates were sealed with polyester film during that time. The reaction was incubated for 1 hour, and the signal was read in Envision in TR-FRET mode (excitation at 320 nm and emission at 615/665 nm).
(§2) As used herein, a way to describe potency of inhibitory activity (nM) is a value of inhibitory activity at 50% (IC50).

[2] = molecular target: T2, Recombinant ROCK2 (amino acids 5-554) (Homo sapiens, UniProt O75116); assay: ROCK inhibition assay, LANCE Ultra TR-FRET (ROCK2); assay type: biochemical; conditions: 1 mM of ATP
T2 construct: ROCK2 (amino acids 5-554)
T2 sequence (O75116 5-554): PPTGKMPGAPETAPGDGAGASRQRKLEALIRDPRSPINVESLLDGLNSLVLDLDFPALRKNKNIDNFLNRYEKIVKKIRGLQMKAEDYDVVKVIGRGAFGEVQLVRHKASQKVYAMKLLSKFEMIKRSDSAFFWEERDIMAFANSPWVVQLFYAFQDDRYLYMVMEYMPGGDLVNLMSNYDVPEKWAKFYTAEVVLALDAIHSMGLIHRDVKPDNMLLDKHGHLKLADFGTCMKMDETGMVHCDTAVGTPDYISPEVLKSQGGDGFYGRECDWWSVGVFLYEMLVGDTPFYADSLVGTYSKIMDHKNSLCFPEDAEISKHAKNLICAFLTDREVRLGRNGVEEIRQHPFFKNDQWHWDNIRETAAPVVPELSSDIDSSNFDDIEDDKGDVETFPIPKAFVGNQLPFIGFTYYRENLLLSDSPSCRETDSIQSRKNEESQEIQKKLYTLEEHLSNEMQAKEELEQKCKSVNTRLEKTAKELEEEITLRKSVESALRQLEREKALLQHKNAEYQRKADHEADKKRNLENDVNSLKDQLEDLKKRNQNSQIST
Procedure: as §1, §2

T1 sequence (Q13464 1-477): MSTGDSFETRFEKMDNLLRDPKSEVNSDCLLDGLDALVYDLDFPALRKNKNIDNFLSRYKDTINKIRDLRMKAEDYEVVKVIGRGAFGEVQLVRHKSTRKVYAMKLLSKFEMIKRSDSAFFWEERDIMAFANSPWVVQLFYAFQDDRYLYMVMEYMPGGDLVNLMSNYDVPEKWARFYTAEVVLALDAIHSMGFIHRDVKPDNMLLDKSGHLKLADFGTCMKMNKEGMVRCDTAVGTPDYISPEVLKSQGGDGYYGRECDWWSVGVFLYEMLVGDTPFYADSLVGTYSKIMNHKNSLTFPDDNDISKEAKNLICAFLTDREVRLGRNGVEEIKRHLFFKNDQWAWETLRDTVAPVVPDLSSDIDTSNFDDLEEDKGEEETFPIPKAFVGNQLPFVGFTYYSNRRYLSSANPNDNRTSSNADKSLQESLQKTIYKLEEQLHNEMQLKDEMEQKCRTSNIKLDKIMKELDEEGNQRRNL

Row | Structure (SMILES) | IC50 [1] | IC50 [2]
1 | Cc1n[nH]cc1-c1ccc2c(C(=O)C3COc4ccc(Cl)cc4C3)cn(CCN(C)C)c2c1 (centres unmarked) [Compound 5-1, (6-chlorochroman-3-yl)-[1-[2-(dimethylamino)ethyl]-6-(3-methyl-1H-pyrazol-4-yl)indol-3-yl]methanone] | > 0.501 µM | 0.201 to 0.5 µM
2 | CN(C)CCn1cc(C(=O)C2COc3ccc(Cl)cc3C2)c2ccc(-c3ccnn3C)cc21 (centres unmarked) [Compound 5-24] | > 0.501 µM | > 0.501 µM
3 | COc1ccc2c(c1)CC(C(=O)c1cn(C[C@H]3CCN3C)c3cc(-c4cn[nH]c4Cl)ccc13)CO2 (some centres unmarked) [Compound 1-50] | > 0.501 µM | < 0.02 µM
4 | CNCCn1cc(C(=O)C2COc3ccc(F)cc3C2)c2ccc(-c3c[nH]nc3Cl)nc21 (centres unmarked) [Compound 3-3] | > 0.501 µM | 0.021 to 0.2 µM
5 | CN(C)CCn1cc(C(=O)C2COc3ccc(F)cc3C2)c2ccc(-c3cn[nH]c3F)cc21 (centres unmarked) [Compound 1-23] | > 0.501 µM | 0.021 to 0.2 µM
6 | COc1ccc2c(c1)C[C@H](C(=O)c1cn(C[C@H]3CCN3C)c3cc(-c4cn[nH]c4Cl)ccc13)CO2 [Compound 1-51] | > 0.501 µM | < 0.02 µM
7 | CN1CC(Cn2cc(C(=O)C3COc4ccc(Cl)cc4C3)c3ccc(-c4cn[nH]c4F)cc32)C1 (centres unmarked) [Compound 1-43] | 0.021 to 0.2 µM | < 0.02 µM
8 | Cc1nocc1-c1ccc2c(C(=O)C3COc4ccc(F)cc4C3)cn(CCN(C)C)c2c1 (centres unmarked) [Compound 5-26] | > 0.501 µM | > 0.501 µM
9 | COc1[nH]ncc1-c1ccc2c(C(=O)C3COc4ccc(Cl)cc4C3)cn(CC3CCCN3C)c2c1 (centres unmarked) [Compound 1-19] | > 0.501 µM | 0.021 to 0.2 µM
10 | NC1(Cn2cc(C(=O)C3COc4ccc(Cl)cc4C3)c3ccc(-c4cn[nH]c4Cl)cc32)CC1 (centres unmarked) [Compound 4-2] | < 0.02 µM | < 0.02 µM
11 | COc1[nH]ncc1-c1ccc2c(C(=O)C3COc4ccc(Cl)cc4C3)cn(C[C@H]3CCCN3C)c2c1 (some centres unmarked) [Compound 1-28] | > 0.501 µM | > 0.501 µM
12 | CN(C)CCn1cc(C(=O)C2COc3ccccc3O2)c2ccc(-c3cn[nH]c3)cc21 (centres unmarked) [Compound 5-2] | > 0.501 µM | 0.201 to 0.5 µM
13 | CN(C)CCn1nc(C(=O)C2COc3ccc(F)cc3C2)c2ccc(-c3c[nH]nc3Cl)cc21 (centres unmarked) [Compound 5-52] | 0.201 to 0.5 µM | < 0.02 µM
14 | COc1n[nH]cc1-c1ccc2c(C(=O)C3COc4ccc(Cl)cc4C3)nn(CCN(C)C)c2c1 (centres unmarked) [Compound 5-45] | > 0.501 µM | < 0.02 µM
15 | COc1n[nH]cc1-c1ccc2c(C(=O)[C@H]3COc4ccc(Cl)cc4C3)nn(CCN(C)C)c2c1 [Compound 5-47] | > 0.501 µM | 0.021 to 0.2 µM
16 | CCN(CCn1cc(C(=O)[C@@H]2COc3ccc(OC)cc3C2)c2ccc(-c3c[nH]nc3Cl)cc21)CC(F)(F)F [Compound 5-14] | > 0.501 µM | 0.021 to 0.2 µM
17 | C[C@H](Cn1cc(C(=O)C2COc3ccc(Cl)cc3C2)c2ccc(-c3cn[nH]c3F)cc21)N(C)C (some centres unmarked) [Compound 2-16] | > 0.501 µM | < 0.02 µM
18 | O=C(c1cn(CCN2CCC2)c2nc(-c3c[nH]nc3Cl)ccc12)C1COc2ccc(F)cc2C1 (centres unmarked) [Compound 3-1, [1-[2-(azetidin-1-yl)ethyl]-6-(3-chloro-1H-pyrazol-4-yl)pyrrolo[2,3-b]pyridin-3-yl]-(6-fluorochroman-3-yl)methanone] | > 0.501 µM | < 0.02 µM
19 | CCN1CC[C@@H]1Cn1cc(C(=O)[C@@H]2COc3ccc(OC)cc3C2)c2ccc(-c3cn[nH]c3Cl)cc21 [Compound 1-59] | > 0.501 µM | < 0.02 µM
20 | CCN(CCn1cc(C(=O)[C@@H]2COc3ccc(OC)cc3C2)c2ccc(-c3c[nH]nc3Cl)cc21)CC(F)F [Compound 5-13] | 0.201 to 0.5 µM | < 0.02 µM

Row | Structure (SMILES) | IC50 [1] | IC50 [2]
21 | CCN(CC)CCn1cc(C(=O)[C@@H]2COc3ccc(OC)cc3C2)c2ccc(-c3cn[nH]c3Cl)cc21 [Compound 3-20] | 0.201 to 0.5 µM | < 0.02 µM
22 | CN(C)CCn1cc(C(=O)[C@H]2COc3ccc(Cl)cc3C2)c2ccc(-c3cn[nH]c3Cl)cc21 [Compound 5-35] | > 0.501 µM | 0.201 to 0.5 µM
23 | COc1ccc2c(c1)C[C@H](C(=O)c1cn(C[C@@H]3CCN3C)c3cc(-c4cn[nH]c4Cl)ncc13)CO2 [Compound 1-4] | > 0.501 µM | < 0.02 µM
24 | C[C@H](Cn1cc(C(=O)C2COc3ccc(Cl)cc3C2)c2ccc(-c3cn[nH]c3Cl)cc21)N(C)C (some centres unmarked) [Compound 2-15] | 0.201 to 0.5 µM | < 0.02 µM
25 | COc1ccc2c(c1)C[C@H](C(=O)c1cn(C[C@H]3CCN3CC(F)(F)F)c3cc(-c4c[nH]nc4Cl)ccc13)CO2 [Compound 5-11] | 0.021 to 0.2 µM | 0.021 to 0.2 µM
26 | CN(C)CCn1cc(C(=O)C2COc3ccc(Cl)cc3O2)c2ccc(-c3c[nH]nc3Cl)cc21 (centres unmarked) [Compound 5-17] | > 0.501 µM | > 0.501 µM
27 | O=C(c1cn(CC2CNC2)c2cc(-c3cn[nH]c3Cl)ccc12)C1COc2ccc(Cl)cc2C1 (centres unmarked) [Compound 1-21] | < 0.02 µM | < 0.02 µM
28 | C[C@H](N)Cn1cc(C(=O)C2COc3ccc(Cl)cc3C2)c2ccc(-c3cn[nH]c3F)cc21 (some centres unmarked) [Compound 2-8] | > 0.501 µM | > 0.501 µM
29 | CCN(CC)CCn1cc(C(=O)C2COc3ccc(OC)cc3C2)c2ccc(-c3cn[nH]c3F)cc21 (centres unmarked) [Compound 3-22] | 0.201 to 0.5 µM | < 0.02 µM
30 | CCN(C)CCn1cc(C(=O)C2COc3ccc(Cl)cc3C2)c2ccc(-c3cn[nH]c3Cl)cc21 (centres unmarked) [Compound 3-10] | > 0.501 µM | 0.021 to 0.2 µM
31 | COc1ccc2c(c1)CC(C(=O)c1nn(CCN(C)C)c3cc(-c4c[nH]nc4OC)ccc13)CO2 (centres unmarked) [Compound 5-49] | 0.021 to 0.2 µM | < 0.02 µM
32 | CCN(CC)CCn1cc(C(=O)C2COc3ccc(Cl)cc3C2)c2ccc(-c3cn[nH]c3OC)cc21 (centres unmarked) [Compound 3-13] | > 0.501 µM | < 0.02 µM
33 | COc1n[nH]cc1-c1ccc2c(C(=O)C3COc4ccc(F)cc4C3)nn(CCN(C)C)c2c1 (centres unmarked) [Compound 5-51] | > 0.501 µM | 0.021 to 0.2 µM
34 | COc1ccc2c(c1)CC(C(=O)c1cn(CC3(N)CC3)c3cc(-c4cn[nH]c4F)ccc13)CO2 (centres unmarked) [Compound 4-6] | 0.021 to 0.2 µM | < 0.02 µM
35 | COc1ccc2c(c1)CC(C(=O)c1cn(CCN(C)C)c3cc(-c4cn[nH]c4OC)ccc13)CO2 (centres unmarked) [Compound 5-41] | 0.201 to 0.5 µM | 0.021 to 0.2 µM
36 | COc1ccc2c(c1)CC(C(=O)c1cn(C[C@H]3CCN3C)c3cc(-c4cn[nH]c4F)ccc13)CO2 (some centres unmarked) [Compound 1-45] | > 0.501 µM | 0.021 to 0.2 µM
37 | CCN(CC)CCn1cc(C(=O)[C@@H]2COc3ccc(Cl)cc3C2)c2ccc(-c3cn[nH]c3OC)cc21 [Compound 3-14] | > 0.501 µM | < 0.02 µM
38 | CCN1CC[C@@H]1Cn1cc(C(=O)C2COc3ccc(OC)cc3C2)c2ccc(-c3cn[nH]c3OC)cc21 (some centres unmarked) [Compound 1-56] | > 0.501 µM | 0.021 to 0.2 µM
39 | CCN(CCF)CCn1cc(C(=O)[C@@H]2COc3ccc(OC)cc3C2)c2ccc(-c3c[nH]nc3Cl)cc21 [Compound 5-12] | > 0.501 µM | 0.021 to 0.2 µM
40 | COc1[nH]ncc1-c1cc2c(cn1)c(C(=O)C1COc3ccc(Cl)cc3C1)cn2CCN(C)C (centres unmarked) [Compound 1-2, (6-chlorochroman-3-yl)(1-(2-(dimethylamino)ethyl)-6-(5-methoxy-1H-pyrazol-4-yl)-1H-pyrrolo[3,2-c]pyridin-3-yl)methanone dihydrochloride] | > 0.501 µM | 0.021 to 0.2 µM

— US20240360139A1, “BLOOD BRAIN BARRIER PENETRATING SELECTIVE INHIBITORS OF ROCK2 PROTEIN KINASES AND USES THEREOF” (GENOSCO Inc., priority 2023, published 2024)
